# Assay results reported in US9907797B2, “Combination therapies for overcoming resistance to mitotic agents during chemotherapy” (EMORY UNIVERSITY, priority 2014, dated 2018).
# Peptide text beside a SMILES is read from it. * marks the point of attachment. Cbz = O=C(OCc1ccccc1)*
# How the values were obtained:
# Format in all cases: cell-based
# PARP1-CHFR interaction = target: T1, PARP1-CHFR interaction (Homo sapiens, UniProt Q96EP1); experiment: Glutathione affinity pull-down of GST tagged PARP1 with CHFR in HEK293 cells; conditions: 10 uM, 16 hours
# T1 construct: expressed in transfected cells; CHFR endogenous
# T1 sequence (Q96EP1 1-664): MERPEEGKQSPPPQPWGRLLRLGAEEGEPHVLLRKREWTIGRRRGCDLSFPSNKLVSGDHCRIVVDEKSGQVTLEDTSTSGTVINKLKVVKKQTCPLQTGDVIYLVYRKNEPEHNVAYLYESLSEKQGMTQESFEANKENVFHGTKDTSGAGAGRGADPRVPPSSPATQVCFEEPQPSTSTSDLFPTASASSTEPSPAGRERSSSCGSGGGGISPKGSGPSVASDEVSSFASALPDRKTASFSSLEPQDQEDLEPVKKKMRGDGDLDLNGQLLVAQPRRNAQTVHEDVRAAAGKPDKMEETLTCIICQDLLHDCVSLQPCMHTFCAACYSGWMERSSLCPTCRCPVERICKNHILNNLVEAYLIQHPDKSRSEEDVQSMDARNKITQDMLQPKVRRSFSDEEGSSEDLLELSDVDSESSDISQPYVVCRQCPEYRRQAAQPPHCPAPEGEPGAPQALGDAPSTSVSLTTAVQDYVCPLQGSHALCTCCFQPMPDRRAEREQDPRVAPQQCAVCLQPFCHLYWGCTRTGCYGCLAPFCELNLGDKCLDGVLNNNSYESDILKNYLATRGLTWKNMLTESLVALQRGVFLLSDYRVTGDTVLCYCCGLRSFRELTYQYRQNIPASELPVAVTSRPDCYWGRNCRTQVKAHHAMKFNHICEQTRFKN
# Method: In an attempt to generate possible lead compounds for the pharmacologic inhibition of the CHFR-PARP1 interaction, a high throughput computational screen of 5,256,508 chemical structures in the MCULE database of purchasable compounds using the AutoDockVina algorithm against the published crystal structure of the CHFR-PBZ domain was performed. The 10 most promising ‘hits’ based on Autodock Vina docking scores (<−9.7) were selected for further characterization. Commercially available compounds were tested for their impact on nuclear CHFR levels (FIG. 3A). Several compounds, including ‘A2’, ‘A3’, ‘A4’ and ‘A6’ decreased CHFR levels assayed by western blotting of whole cell extracts. The impact of the above referenced compounds on the PARP1/CHFR interaction were evaluated. HEK293 cells were transfected with GST tagged PARP1 and the interaction with CHFR determined in pull down assays for those 4 compounds. […] In contrast to treatment with ABT-888, ‘A3’ completely disrupted the interaction between GST-tagged PARP-1 and CHFR (FIG. 3B). […] Since it is possible that the co-immunoprecipitation between PARP-1 and CHFR after ‘A3’ treatment was negative due to the fact that CHFR was degraded, the experiment was repeated after transfection with the Ring-domain deleted ΔR-CHFR construct, which maintained both stable CHFR and PARP1 levels even after treatment with ‘A3’. […]
# CHFR = experiment: wt-CHFR and CHFR-PBZ* protein levels in transfected Calu-6 cells
# From the text: To determine if disruption of the CHFR-PARP1 interaction forces CHFR degradation by auto-ubiquitination and subsequent proteasomal degradation, wild-type and the CHFR-PBZ mutant were expressed in the presence and absence of the proteasome inhibitor MG-132 (FIG. 1H) or after the additional deletion of the RING domain (FIG. 1I) in Calu-6 cells.
# [1] = test system: A549, EKVX, H596, H522, Hop-62, H460 and H2023; experiment: Cytotoxicity assays with docetaxel and ABT-888 in seven lung cancer cell lines
# Method: Hypothesizing that PARP-inhibition could induce synergistic cytotoxicity in CHFR expressing lung cancer cell lines, cytotoxicity assays were performed in seven lung cancer cell lines (A549, EKVX, H596, H522, Hop-62, H460 and H2023) using docetaxel and the PARP-inhibitor ABT-888 either alone or in combination.
# CHFR-PARP1 interaction = experiment: Interaction between GST-tagged PARP1 and CHFR in synchronized cells; conditions: microtubular damage induced with docetaxel, G2/M phase
# Method: (§1) The functional significance of the interaction between CHFR and PARP1 in antephase checkpoint control and taxane sensitivity was evaluated. HEK293 cells were transfected with a GST-tagged PARP1, synchronized with aphidocholin, and the interaction between GST-tagged PARP1 and CHFR was analyzed at various stages of the cell cycle (FIG. 2A, 2B). […] To determine the effect on taxane sensitivity, XTT assays were performed in A549 cells stably transfected with either shRNAs specifically targeting CHFR or PARP1 or control shRNAs (scrambled or luciferase targeting respectively).
# A549 cells = experiment: XTT assays with docetaxel in A549 cells stably transfected with shRNAs
# Method: as §1
# Calu-6 NSCLC cells = experiment: XTT assay with docetaxel in transfected Calu-6 cells; conditions: docetaxel 72 hours, Calu-6 with wt-CHFR vs empty vector and CHFR-PBZ*, p<0.05
# Method: The effect of Docetaxel after 72 hours was established by XTT assay.
# In Hela cells, full length, but not PBZ-mutant CHFR has similar cell cycle effects. To determine the functional relevance of the PBZ domain on taxane resistance in NSCLC CHFR deficient CALU-6 cells were transfected with either with full-length CHFR (pDEST40-wt-CHFR) or PBZ mutant CHFR (pDEST40-CHFR-PBZ*).
structure (smiles),measurement,setting,value
C[C@]1(c2nc3c(C(N)=O)cccc3[nH]2)CCCN1 [ABT-888],interaction between PARP1 and CHFR,PARP1-CHFR interaction,nor did it disrupt the interaction between CHFR and PARP-1
same,CHFR protein levels,"CHFR; Calu-6 cells, wt-CHFR or CHFR-PBZ*",did not result in altered CHFR protein levels
same,"cytostasis, docetaxel combined with ABT-888",[1]; ABT-888 20 uM,did not lead to enhanced cytostasis
same,"synergy of docetaxel and ABT-888, cytotoxicity","[1]; seven lung cancer cell lines, alone or in combination",Synergy was not observed in any of the cell lines
CC(C)C[C@@H](C=O)NC(=O)[C@H](CC(C)C)NC(=O)[C@H](CC(C)C)NC(=O)OCc1ccccc1 [MG-132] (Cbz-Leu-Leu-Leu-aldehyde),CHFR-PBZ* protein levels,"CHFR; Calu-6 cells stably transfected with CHFR-PBZ*, proteasomal inhibition",increases CHFR-PBZ* protein levels
CC(=O)O[C@@]12CO[C@@H]1C[C@H](O)[C@@]1(C)C(=O)[C@H](O)C3=C(C)[C@@H](OC(=O)[C@H](O)[C@@H](NC(=O)OC(C)(C)C)c4ccccc4)C[C@@](O)([C@@H](OC(=O)c4ccccc4)[C@H]21)C3(C)C [docetaxel],interaction between GST-tagged PARP1 and CHFR,CHFR-PARP1 interaction,further enhances this interaction
same,sensitivity to docetaxel (XTT),A549 cells; CHFR-deficient A549 cells relative to scrambled control,increased sensitivity to docetaxel
same,sensitivity to docetaxel (XTT),A549 cells; PARP1 deficient A549 cells relative to control shRNA,also showed increased sensitivity to docetaxel
same,taxane resistance (XTT),Calu-6 NSCLC cells,Stable transfection of wt-CHFR increases taxane resistance
